The results in this text go back to patent publication US8835429B2, “Pyrimidine compounds, their use as mTOR kinase and Pl3 kinase inhibitors, and their syntheses” (Wyeth LLC, priority 2009, dated 2014).

A value given as a limit tells only on which side of the number the result lay.

One assay deals with PI3K-alpha (Homo sapiens, UniProt P42336). Put plainly: PI3K-alpha fluorescence polarization assay. Type of assay: biochemical. Particulars: 20 μM PIP2, 25 μM ATP; read-out: PI3Kα IC50. The gist of the method: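 PIP2 (diC8) and ATP substrate with PI3K in 20 mM HEPES pH 7.5, 2 mM MgCl2, 0.05% CHAPS, 0.01% βME; 1% DMSO final; 30–60 min reaction. Stopped with EDTA plus GST-GRP (70 nM) and TAMRA probe (10 nM); FP (mP) read after 30–90 min, with no-enzyme controls.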
Sequence of PI3K-alpha (P42336 whole entry, species assumed): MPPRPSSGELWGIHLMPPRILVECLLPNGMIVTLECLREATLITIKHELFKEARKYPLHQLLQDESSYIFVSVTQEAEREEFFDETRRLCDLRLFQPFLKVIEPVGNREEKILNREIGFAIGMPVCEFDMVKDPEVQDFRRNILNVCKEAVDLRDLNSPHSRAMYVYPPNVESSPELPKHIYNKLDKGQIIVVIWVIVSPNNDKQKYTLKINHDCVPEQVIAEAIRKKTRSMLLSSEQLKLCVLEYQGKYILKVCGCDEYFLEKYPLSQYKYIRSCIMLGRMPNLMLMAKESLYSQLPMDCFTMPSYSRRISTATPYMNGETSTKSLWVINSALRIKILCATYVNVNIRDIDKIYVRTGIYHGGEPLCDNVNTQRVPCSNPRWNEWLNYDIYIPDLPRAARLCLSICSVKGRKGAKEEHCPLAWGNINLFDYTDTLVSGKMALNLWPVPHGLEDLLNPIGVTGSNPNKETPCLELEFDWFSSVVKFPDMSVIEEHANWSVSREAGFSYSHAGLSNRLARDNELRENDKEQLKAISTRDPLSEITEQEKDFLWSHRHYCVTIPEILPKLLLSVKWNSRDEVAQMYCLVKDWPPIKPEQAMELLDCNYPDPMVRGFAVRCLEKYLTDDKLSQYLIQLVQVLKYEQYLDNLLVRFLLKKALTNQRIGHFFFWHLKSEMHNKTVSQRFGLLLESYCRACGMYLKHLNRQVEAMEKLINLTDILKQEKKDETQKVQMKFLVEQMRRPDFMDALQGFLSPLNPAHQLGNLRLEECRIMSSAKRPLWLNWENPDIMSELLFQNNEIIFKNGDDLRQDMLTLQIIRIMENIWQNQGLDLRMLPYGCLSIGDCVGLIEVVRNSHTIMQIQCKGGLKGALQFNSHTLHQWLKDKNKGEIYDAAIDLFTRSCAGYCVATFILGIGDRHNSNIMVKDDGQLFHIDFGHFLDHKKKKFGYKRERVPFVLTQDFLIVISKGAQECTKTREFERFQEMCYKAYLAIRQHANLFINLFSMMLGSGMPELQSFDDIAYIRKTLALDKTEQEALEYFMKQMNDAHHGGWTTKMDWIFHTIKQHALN
Sequence of PI3K-alpha (P27986 whole entry partner, species assumed): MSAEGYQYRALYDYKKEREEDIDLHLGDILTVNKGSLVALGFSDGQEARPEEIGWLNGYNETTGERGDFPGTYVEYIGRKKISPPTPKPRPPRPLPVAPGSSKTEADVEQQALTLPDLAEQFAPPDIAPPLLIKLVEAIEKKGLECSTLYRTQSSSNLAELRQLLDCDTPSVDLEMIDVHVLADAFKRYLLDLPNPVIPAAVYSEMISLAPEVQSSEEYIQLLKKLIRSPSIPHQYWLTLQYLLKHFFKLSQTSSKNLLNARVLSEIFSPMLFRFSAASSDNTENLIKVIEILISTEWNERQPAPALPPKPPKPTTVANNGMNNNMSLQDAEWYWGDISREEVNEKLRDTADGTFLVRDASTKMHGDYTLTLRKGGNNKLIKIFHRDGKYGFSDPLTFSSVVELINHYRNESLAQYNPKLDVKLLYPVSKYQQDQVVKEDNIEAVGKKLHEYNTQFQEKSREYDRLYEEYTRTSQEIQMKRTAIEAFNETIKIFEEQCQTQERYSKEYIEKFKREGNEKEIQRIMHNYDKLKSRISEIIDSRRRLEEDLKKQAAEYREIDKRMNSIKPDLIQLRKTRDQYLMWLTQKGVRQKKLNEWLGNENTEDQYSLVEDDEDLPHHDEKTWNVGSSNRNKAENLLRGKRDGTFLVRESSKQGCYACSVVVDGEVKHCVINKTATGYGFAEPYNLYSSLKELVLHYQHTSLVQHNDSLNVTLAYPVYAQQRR

In a further assay the target is PI3K-gamma (Homo sapiens, UniProt P48736). Description: PI3K-gamma fluorescence polarization assay. It is filed as biochemical. To be noted: 20 μM PIP2, 25 μM ATP; read-out: PI3Kγ IC50. The method, then: The reaction buffer was 20 mM HEPES, pH 7.5, 2 mM MgCl2, 0.05% CHAPS; and 0.01% βME (added fresh). The stop/detection buffer was 100 mM HEPES, pH 7.5, 4 mM EDTA, 0.05% CHAPS; ATP 20 mM in water; PIP2 (diC8, Echelon, Salt Lake City Utah cat #P-4508) 1 mM in water (MW=856.5). The GST-GRP was 1.75 mg/mL or 1.4 mg/mL in 10% glycerol. The red detector (TAMRA) was 2.5 μM. Nunc 384-well black polypropylene fluorescent plates were used for PI3K assays.
Sequence of PI3K-gamma (P48736 whole entry, species assumed): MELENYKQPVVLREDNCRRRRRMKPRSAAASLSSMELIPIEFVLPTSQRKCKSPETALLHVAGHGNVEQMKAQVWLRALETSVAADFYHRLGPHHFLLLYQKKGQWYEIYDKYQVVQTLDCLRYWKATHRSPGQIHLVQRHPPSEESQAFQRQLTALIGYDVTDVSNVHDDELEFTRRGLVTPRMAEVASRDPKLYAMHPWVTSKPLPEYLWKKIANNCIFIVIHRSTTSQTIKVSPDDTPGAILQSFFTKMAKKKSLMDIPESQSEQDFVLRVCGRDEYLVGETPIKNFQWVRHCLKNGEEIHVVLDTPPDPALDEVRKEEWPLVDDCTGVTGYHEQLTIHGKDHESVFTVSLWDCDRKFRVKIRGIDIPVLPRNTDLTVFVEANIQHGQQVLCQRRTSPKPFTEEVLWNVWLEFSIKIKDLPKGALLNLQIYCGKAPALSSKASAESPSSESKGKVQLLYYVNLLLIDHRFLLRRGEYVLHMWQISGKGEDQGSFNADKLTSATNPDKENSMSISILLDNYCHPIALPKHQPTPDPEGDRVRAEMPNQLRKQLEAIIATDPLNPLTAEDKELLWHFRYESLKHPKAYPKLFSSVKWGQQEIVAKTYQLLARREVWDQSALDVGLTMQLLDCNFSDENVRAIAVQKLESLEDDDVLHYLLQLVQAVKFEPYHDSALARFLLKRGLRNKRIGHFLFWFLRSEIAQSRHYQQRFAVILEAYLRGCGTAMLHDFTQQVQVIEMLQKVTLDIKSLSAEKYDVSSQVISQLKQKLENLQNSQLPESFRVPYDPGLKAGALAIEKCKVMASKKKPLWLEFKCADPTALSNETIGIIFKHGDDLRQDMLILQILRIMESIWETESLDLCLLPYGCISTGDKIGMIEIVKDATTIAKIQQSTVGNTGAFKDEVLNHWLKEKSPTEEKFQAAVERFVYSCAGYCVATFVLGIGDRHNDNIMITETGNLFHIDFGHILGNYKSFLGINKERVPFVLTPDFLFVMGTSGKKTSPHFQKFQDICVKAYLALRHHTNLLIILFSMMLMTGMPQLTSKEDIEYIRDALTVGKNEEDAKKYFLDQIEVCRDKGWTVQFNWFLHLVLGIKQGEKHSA
The assay is run by placing 5 μL of diluted enzyme per well, then 5 μL of diluted compound (or 9.5 μL enzyme then 0.5 μL compound in DMSO) is added and mixed. Then, 10 μL substrate is added to start the reaction. The samples are incubated 30-60 minutes, then the reaction is stopped by adding 20 μL stop/detector mix. PI3K is diluted with reaction buffer (e.g., 5 μL or 7.5 μL PI3K into 620 μL reaction buffer), and 5 μL of diluted enzyme is used per well. A 5 μL portion of reaction buffer or of drug diluted in buffer (e.g., 4 μL/100 so final DMSO is 1% in reaction) is added to each. Pipetting up and down mixes the samples. Alternatively, the enzyme can be diluted to 1215 μL. In this case 9.8 μL is added per well and 0.2 μL compound is added in DMSO.
To prepare 1 mL of substrate solution, 955 μL reaction buffer, 40 μL PIP2, and 2.5 μL ATP are mixed. 10 μL of substrate is added to each well to start the reaction. […] The stop/detector mix is prepared by mixing 4 μL red detector and 1.6 μL or 2.0 μL GST-GRP with 1 mL stop buffer, which results in 10 nM probe and 70 nM GST-GRP. 20 μL of the stop/detector mix is added to each well to stop the reaction. The plates are read after 30-90 minutes keeping the red probe solutions dark. For the zero time point, stop/detector mix is added to the enzyme just before adding substrate. For an extra control, stop/detector mix is added to buffer (no enzyme) and substrate or to just buffer (no substrate). […] The recommended reaction has 0.06 μL per 20 μL (0.015 μg/20 μL) or 0.01125 μg/15 μL or 0.75 μg/mL.
Plates are read on machines with filters for TAMRA. The units are mP with no enzyme controls reading app 190-220 mP units. Fully active enzyme reduces fluorescence polarization down to 70-100 mP after 30 minutes. An active compound raises the mP values halfway to control or to 120-150 mP units.

The next assay has as its system LNCap. Put plainly: In vitro cell growth assay (MTS), LNCap. Type of assay: cell-based. To be noted: LNCaP, 72 h, human prostate line, three days after drug treatment.
Another assay concerns MDA468. Put plainly: In vitro cell growth assay (MTS), MDA468. Type of assay: cell-based. Particulars: 72 h, human breast line MDA468, three days after drug treatment, read-out: MDA IC50.
In the next assay the target is mTOR (Homo sapiens, UniProt P42345). Put plainly: mTOR enzyme assay (DELFIA, purified FLAG-TOR, His6-S6K substrate). It is filed as biochemical. Details: FLAG. To be noted: 100 μM ATP, 2 hours.
Sequence of mTOR (P42345 1360-2549 limits assumed): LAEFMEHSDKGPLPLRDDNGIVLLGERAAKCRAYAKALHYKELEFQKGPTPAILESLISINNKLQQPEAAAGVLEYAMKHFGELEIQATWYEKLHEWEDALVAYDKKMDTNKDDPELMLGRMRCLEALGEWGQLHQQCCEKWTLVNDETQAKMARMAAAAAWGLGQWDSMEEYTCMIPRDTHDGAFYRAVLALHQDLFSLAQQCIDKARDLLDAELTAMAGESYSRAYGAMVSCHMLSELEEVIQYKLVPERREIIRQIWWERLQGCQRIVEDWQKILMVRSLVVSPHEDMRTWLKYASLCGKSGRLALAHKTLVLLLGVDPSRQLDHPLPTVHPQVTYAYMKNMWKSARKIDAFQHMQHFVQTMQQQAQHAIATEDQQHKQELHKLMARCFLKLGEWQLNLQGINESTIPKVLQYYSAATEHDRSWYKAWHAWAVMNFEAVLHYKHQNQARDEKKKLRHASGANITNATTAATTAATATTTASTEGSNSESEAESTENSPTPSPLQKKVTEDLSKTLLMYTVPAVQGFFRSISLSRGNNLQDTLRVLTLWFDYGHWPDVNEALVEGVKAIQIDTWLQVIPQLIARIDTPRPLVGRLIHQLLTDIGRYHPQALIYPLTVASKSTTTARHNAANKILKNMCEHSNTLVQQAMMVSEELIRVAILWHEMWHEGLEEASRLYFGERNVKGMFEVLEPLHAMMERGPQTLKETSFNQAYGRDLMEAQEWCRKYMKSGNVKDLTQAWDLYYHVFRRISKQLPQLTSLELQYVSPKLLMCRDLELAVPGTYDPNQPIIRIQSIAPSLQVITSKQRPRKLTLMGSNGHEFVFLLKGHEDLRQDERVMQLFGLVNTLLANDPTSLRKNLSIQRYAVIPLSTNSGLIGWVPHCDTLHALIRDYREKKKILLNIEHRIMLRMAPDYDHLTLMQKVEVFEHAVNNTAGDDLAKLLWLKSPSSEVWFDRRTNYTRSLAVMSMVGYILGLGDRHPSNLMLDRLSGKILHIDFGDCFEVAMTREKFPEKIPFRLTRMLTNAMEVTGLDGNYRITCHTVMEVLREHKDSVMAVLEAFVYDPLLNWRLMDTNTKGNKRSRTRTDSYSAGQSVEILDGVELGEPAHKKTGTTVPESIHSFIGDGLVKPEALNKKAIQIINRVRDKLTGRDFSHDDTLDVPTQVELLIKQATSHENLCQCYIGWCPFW

On to `C[C@@H]1COCCN1c1cc(N2C3CCC2COC3)nc(-c2ccc(NC(=O)Nc3ccc(N4CCN(C)CC4)cc3)cc2)n1` [1-(4-{4-[(3R)-3-methylmorpholin-4-yl]-6-(3-oxa-8-azabicyclo[3.2.1]oct-8-yl)pyrimidin-2-yl}phenyl)-3-[4-(4-methylpiperazin-1-yl)phenyl]urea], for which the IC50 on PI3K-alpha is 864 nM; on PI3K-gamma, 3500 nM; with LNCap, not above 0.8 nM; with MDA468, 1 nM; against mTOR, 1.25 nM.
Taken in the same sequence, the figures for `CC(C)Nc1cc(N2C3COCC2COC3)nc(-c2ccc(NC(=O)Nc3ccc(OCCN(C)C)cc3)cc2)n1` [1-{4-[2-(dimethylamino)ethoxy]phenyl}-3-{4-[4-(3,7-dioxa-9-azabicyclo[3.3.1]non-9-yl)-6-(isopropylamino)pyrimidin-2-yl]phenyl}urea] were 1760 nM, 8630 nM, 420 nM, 600 nM and 16.5 nM.
Taken in the same sequence, the figures for `CN(C)Cc1ccc(NC(=O)Nc2ccc(-c3nc(N4C5CCC4COC5)cc(N4C[C@@H]5C[C@H]4CO5)n3)cc2)cc1` [1-{4-[(dimethylamino)methyl]phenyl}-3-(4-{4-[(1S,4S)-2-oxa-5-azabicyclo[2.2.1]hept-5-yl]-6-(3-oxa-8-azabicyclo[3.2.1]oct-8-yl)pyrimidin-2-yl}phenyl)urea] were 1240 nM, not below 10000 nM, 60 nM, 150 nM and 16 nM.
On to `CN1CCN(Cc2ccc(NC(=O)Nc3ccc(-c4nc(NCCS(C)(=O)=O)cc(N5C6CCC5COC6)n4)cc3)cc2)CC1` [1-{4-[(4-methylpiperazin-1-yl)methyl]phenyl}-3-{4-[4-{[2-(methylsulfonyl)ethyl]amino}-6-(3-oxa-8-azabicyclo[3.2.1]oct-8-yl)pyrimidin-2-yl]phenyl}urea], for which the IC50 at PI3K-alpha was determined as 3980 nM; at PI3K-gamma, 10800 nM; in the assay with LNCap, 400 nM; in the assay with MDA468, 500 nM; at mTOR, 17.5 nM.
Consider `C[C@@H]1COCCN1c1cc(N2C3CCC2COC3)nc(-c2ccc(NC(=O)Nc3ccncc3)cc2)n1` [1-(4-{4-[(3R)-3-methylmorpholin-4-yl]-6-(3-oxa-8-azabicyclo[3.2.1]oct-8-yl)pyrimidin-2-yl}phenyl)-3-pyridin-4-ylurea], for which the IC50 at PI3K-alpha was 314 nM; on PI3K-gamma, 778 nM; with LNCap, 1 nM; in the assay with MDA468, 5 nM; against mTOR, 0.645 nM.
`CS(=O)(=O)CCNc1cc(N2C3CCC2COC3)nc(-c2ccc(NC(=O)Nc3cccnc3)cc2)n1` [1-{4-[4-{[2-(methylsulfonyl)ethyl]amino}-6-(3-oxa-8-azabicyclo[3.2.1]oct-8-yl)pyrimidin-2-yl]phenyl}-3-pyridin-3-ylurea]: the IC50 on PI3K-alpha was 1640 nM; on PI3K-gamma it was not below 10000 nM; with LNCap it was 2000 nM; in the assay on MDA468 it was 800 nM; against mTOR, 5 nM.
Taken in the same sequence, the figures for `O=C(Nc1ccc(-c2nc(C3CCOCC3)cc(N3C4CCC3COC4)n2)cc1)Nc1cccnc1` [1-{4-[4-(3-oxa-8-azabicyclo[3.2.1]oct-8-yl)-6-(tetrahydro-2H-pyran-4-yl)pyrimidin-2-yl]phenyl}-3-pyridin-3-ylurea] were 2690 nM, not below 10000 nM, 4 nM, 200 nM and 0.32 nM.
Taken in the same sequence, the figures for `C[C@@H]1CN(c2cc(N3C4CCC3COC4)nc(-c3ccc(NC(=O)Nc4ccc(N5CCN(C)CC5)cc4)cc3)n2)C[C@H](C)O1` [1-(4-{4-[(2R,6S)-2,6-dimethylmorpholin-4-yl]-6-(3-oxa-8-azabicyclo[3.2.1]oct-8-yl)pyrimidin-2-yl}phenyl)-3-[4-(4-methylpiperazin-1-yl)phenyl]urea] were 1550 nM, 6440 nM, 30 nM, 130 nM and 4.4 nM.
In the case of `CCN(CC)c1cc(N2C3CCC2COC3)nc(-c2ccc(NC(=O)Nc3ccc(N4CCN(C)CC4)cc3)cc2)n1` [1-{4-[4-(diethylamino)-6-(3-oxa-8-azabicyclo[3.2.1]oct-8-yl)pyrimidin-2-yl]phenyl}-3-[4-(4-methylpiperazin-1-yl)phenyl]urea], the IC50 is 2910 nM at PI3K-alpha; 3390 nM on PI3K-gamma; 132 nM in the assay with LNCap; 560 nM with MDA468; 5.85 nM against mTOR.
Taken in the same sequence, the figures for `CN(C)CCOc1ccc(NC(=O)Nc2ccc(-c3nc(N4C5CCC4COC5)cc(N4C[C@H]5C[C@@H]4CO5)n3)cc2)cc1` [1-{4-[2-(dimethylamino)ethoxy]phenyl}-3-(4-{4-[(1R,4R)-2-oxa-5-azabicyclo[2.2.1]hept-5-yl]-6-(3-oxa-8-azabicyclo[3.2.1]oct-8-yl)pyrimidin-2-yl}phenyl)urea] were 2740 nM, 9470 nM, 120 nM, 130 nM and 12 nM.
As for `CN1CCN(c2ccc(NC(=O)Nc3ccc(-c4nc(N5C6CCC5COC6)cc(N5C[C@H]6C[C@@H]5CO6)n4)cc3)cc2)CC1` [1-[4-(4-methylpiperazin-1-yl)phenyl]-3-(4-{4-[(1R,4R)-2-oxa-5-azabicyclo[2.2.1]hept-5-yl]-6-(3-oxa-8-azabicyclo[3.2.1]oct-8-yl)pyrimidin-2-yl}phenyl)urea], the IC50 on PI3K-alpha worked out at 2090 nM; on PI3K-gamma it was 8710 nM; in the assay on LNCap it was 40 nM; in the assay with MDA468, 48 nM; on mTOR, 7.55 nM.
Taken in the same sequence, the figures for `O=C(Nc1ccncc1)Nc1ccc(-c2nc(NC3CCOCC3)cc(N3C4CCC3COC4)n2)cc1` [1-{4-[4-(3-oxa-8-azabicyclo[3.2.1]oct-8-yl)-6-(tetrahydro-2H-pyran-4-ylamino)pyrimidin-2-yl]phenyl}-3-pyridin-4-ylurea] were 2010 nM, 12000 nM, 40 nM, 40 nM and 3.8 nM.
Turning to `CN1CCN(c2ccc(NC(=O)Nc3ccc(-c4nc(NCCS(C)(=O)=O)cc(N5C6CCC5COC6)n4)cc3)cc2)CC1` [1-[4-(4-methylpiperazin-1-yl)phenyl]-3-{4-[4-{[2-(methylsulfonyl)ethyl]amino}-6-(3-oxa-8-azabicyclo[3.2.1]oct-8-yl)pyrimidin-2-yl]phenyl}urea], the IC50 at PI3K-alpha is 1840 nM; on PI3K-gamma, not below 10000 nM; with LNCap it was 17 nM; in the assay on MDA468 it was 19 nM; at mTOR, 14.5 nM.
Turning to `CC(C)Nc1cc(N2C3CCC2COC3)nc(-c2ccc(NC(=O)Nc3ccc(OCCN4CCCC4)cc3)cc2)n1` [1-(4-{4-[(1-methylethyl)amino]-6-(3-oxa-8-azabicyclo[3.2.1]oct-8-yl)pyrimidin-2-yl}phenyl)-3-[4-(2-pyrrolidin-1-ylethoxy)phenyl]urea], the IC50 on PI3K-alpha turned out to be 1320 nM; on PI3K-gamma, 4730 nM; in the assay with LNCap, 50 nM; in the assay on MDA468, 55 nM; on mTOR it was 3.05 nM.
As to `CCN(CC)c1cc(N2C3CCC2COC3)nc(-c2ccc(NC(=O)Nc3ccncc3)cc2)n1` [1-{4-[4-(diethylamino)-6-(3-oxa-8-azabicyclo[3.2.1]oct-8-yl)pyrimidin-2-yl]phenyl}-3-pyridin-4-ylurea], the figures for the IC50 on PI3K-alpha, at PI3K-gamma and against mTOR were 2410 nM, 1990 nM and 4.55 nM, respectively.

As a reminder, the IC50 is the point on the concentration scale where inhibition reaches its midpoint.
